According to patent US7314620B2, “Methods for diagnosis and treatment of PH domain signal transduction disorders” (New York University, priority 1995, dated 2008):
pKd: −log10 of the molar value.

Key:
[1] = target: T1, Dyn-PH (Homo sapiens, UniProt Q05193); test: Equilibrium gel filtration (Hummel and Dreyer) of PH domain binding to lipid vesicles; details: PIP2-containing vesicles
T1 construct: The PH domains from PLC-δ1, and dynamin, as well as the N-terminal PH domain of pleckstrin; made in house; host or cells: Escherichia coli (T7 system)
T1 sequence (Q05193 519-625 limits assumed): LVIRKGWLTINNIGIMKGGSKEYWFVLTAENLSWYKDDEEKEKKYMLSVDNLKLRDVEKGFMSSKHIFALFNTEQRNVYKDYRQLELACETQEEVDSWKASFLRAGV
Protocol: A 150×7.5 mm Superdex 75 column, attached to a Dionex HPLC system, was equilibrated with buffer containing PH domain at around 5 μM (depending upon the experiment). A suspension of vesicles that also contained 5 μM PH domain was then injected. In the absence of interaction between the PH domain and the vesicles, the resulting column profile (detected by absorbance at 280 nm) reflects only the lipid peak. However, if there is significant interaction, a trough is observed at a position corresponding to the elution position of the free PH domain, since the lipids have removed free PH domain from the column buffer. When such a trough was observed, in order to determine a KD for the interaction, a series of higher concentrations of PH domain were injected, all with constant lipid concentration. A plot of trough area against [PH] in the injected sample was linear, becoming positive when excess free protein was present in the injected sample (see FIG. 5B). This line was used to determine the point at which no trough was observed. […] Since [PH]total as well as [lipid]total in the injected sample are known, KD can be determined, as KD=([PH]free×[lipid]free)/[complex]. […]
We also utilized the equilibrium gel-filtration approach described by Hummel, J. P., and Dreyer, W. J., Biochim. […] If an interaction is observed, its KD can be determined as described in Experimental Procedures. […]

[2] = target: T2, PlecN-PH (Homo sapiens, UniProt P08567); test: as above; details: PIP2-containing vesicles; overestimate; inhibited by moderately high NaCl; read-out: apparent KD for vesicle binding
T2 construct: residues 1-110 of pleckstrin (PlecN-PH); initiator methionine (N); made in house; host or cells: Escherichia coli (pET11a, T7 system)
T2 sequence (P08567 1-110): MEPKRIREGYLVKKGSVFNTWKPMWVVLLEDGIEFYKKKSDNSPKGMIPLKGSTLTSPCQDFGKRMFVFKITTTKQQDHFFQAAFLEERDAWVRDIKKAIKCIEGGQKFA
Protocol: (§1) A 150×7.5 mm Superdex 75 column, attached to a Dionex HPLC system, was equilibrated with buffer containing PH domain at around 5 μM (depending upon the experiment). A suspension of vesicles that also contained 5 μM PH domain was then injected. In the absence of interaction between the PH domain and the vesicles, the resulting column profile (detected by absorbance at 280 nm) reflects only the lipid peak. However, if there is significant interaction, a trough is observed at a position corresponding to the elution position of the free PH domain, since the lipids have removed free PH domain from the column buffer. When such a trough was observed, in order to determine a KD for the interaction, a series of higher concentrations of PH domain were injected, all with constant lipid concentration. A plot of trough area against [PH] in the injected sample was linear, becoming positive when excess free protein was present in the injected sample (see FIG. 5B). This line was used to determine the point at which no trough was observed. At this point, [PH]free in the injected sample is equal to [PH] in the column buffer. Since [PH]total as well as [lipid]total in the injected sample are known, KD can be determined, as KD=([PH]free×[lipid]free)/[complex]. [complex]=[PH]total−[PH]free, and [lipid]free=[lipid]total−[complex].
(§2) We also utilized the equilibrium gel-filtration approach described by Hummel, J. P., and Dreyer, W. J., Biochim. Biophys. Acta. 63, 530-532, 1962. In this approach, a size exclusion column is equilibrated with a solution of the ligand (5 μM PH domain in this case), and a solution of macromolecule (a vesicle suspension in this case) that also contains 5 μM ligand is then injected. In the absence of interaction between the ligand and macromolecule, a single peak, corresponding to the macromolecule, is observed. […] If an interaction is observed, its KD can be determined as described in Experimental Procedures. […]

[3] = target: T3, PLCδ-PH (Rattus norvegicus, UniProt P10688); test: as above; details: lipid-containing DMPC vesicles; overestimates of the real KD; read-out: apparent KD for vesicle binding
T3 construct: initiator methionine (N); made in house; host or cells: Escherichia coli (pET11a, T7 system)
T3 sequence (P10688 20-136): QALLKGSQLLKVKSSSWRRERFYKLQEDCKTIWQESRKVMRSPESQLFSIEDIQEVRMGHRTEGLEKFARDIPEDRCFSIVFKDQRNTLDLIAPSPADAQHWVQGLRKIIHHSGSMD
Protocol: as §1, §2

[4] = target: T4, N-terminal pleckstrin PH domain (Homo sapiens, UniProt P08567); details: PIP2 in detergent; Harlan et al. 1994; cited from earlier work
T4 sequence (P08567 4-101 limits assumed): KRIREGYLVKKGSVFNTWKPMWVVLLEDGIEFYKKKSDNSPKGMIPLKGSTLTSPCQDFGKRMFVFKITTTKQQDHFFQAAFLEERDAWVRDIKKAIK

[5] = target: T5, whole PLC-δ1 (Homo sapiens, UniProt P51178); details: sucrose-loaded PIP2-containing vesicles; Rebecchi et al. 1992; read-out: apparent KD; cited from earlier work
T5 sequence (P51178 1-756): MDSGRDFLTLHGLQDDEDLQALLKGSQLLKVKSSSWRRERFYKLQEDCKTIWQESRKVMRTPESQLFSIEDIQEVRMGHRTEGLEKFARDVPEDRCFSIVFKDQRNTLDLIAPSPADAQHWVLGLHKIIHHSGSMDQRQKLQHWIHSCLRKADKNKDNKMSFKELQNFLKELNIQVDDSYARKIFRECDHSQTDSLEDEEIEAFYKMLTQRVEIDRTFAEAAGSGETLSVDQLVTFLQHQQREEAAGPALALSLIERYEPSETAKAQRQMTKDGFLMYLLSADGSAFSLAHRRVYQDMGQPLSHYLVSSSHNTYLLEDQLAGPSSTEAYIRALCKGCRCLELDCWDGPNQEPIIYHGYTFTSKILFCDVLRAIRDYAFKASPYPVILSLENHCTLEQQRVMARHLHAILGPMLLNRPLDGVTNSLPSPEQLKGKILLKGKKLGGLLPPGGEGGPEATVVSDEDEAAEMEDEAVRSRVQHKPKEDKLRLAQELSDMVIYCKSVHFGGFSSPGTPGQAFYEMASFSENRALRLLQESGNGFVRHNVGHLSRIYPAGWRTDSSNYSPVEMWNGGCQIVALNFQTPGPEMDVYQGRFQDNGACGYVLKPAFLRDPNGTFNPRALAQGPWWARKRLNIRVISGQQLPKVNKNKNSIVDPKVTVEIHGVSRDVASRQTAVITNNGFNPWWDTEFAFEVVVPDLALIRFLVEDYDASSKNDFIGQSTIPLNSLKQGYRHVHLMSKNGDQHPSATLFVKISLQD

- binding to vesicles [1]: no detectable binding
- pKd [2]: ~4.05
- pKd [3]: 4.89
Substance: Phosphatidylinositol-(4,5)-bisphosphate [PIP2]
- pKd [4]: ~4.52
- pKd [5]: ~5.60
